According to PMC9374667 (Communications Biology, 2022):
“And” between values parts separate entries of the source, which are not always exact repeats. Identical values can stand only once.

How the values were obtained:
db/db mice [1] = test: Fat depots weight (BAT, iWAT, eWAT; percentage of body weight); assay type: in vivo; design: key to BAT fat depot weight (Figure 4c): % of body weight (fat depot weight / body weight * 100%); conditions: db/db mice; for eWAT fat depot weight (Figure 4c) / iWAT fat depot weight (Figure 4c): in %; for Fat depots weight / body weight: individual mice
Procedure: (§1) The lean wild type control and the db/db control mice were given equal vehicle volume (0.5% CMC-Na solution). All mice were monitored for food intake, body weight, and fasting blood glucose during the 35-day trial. Glucose tolerance test (GTT) and insulin resistance test (ITT) were performed at 4 and 5 weeks of treatment, respectively. Metabolic analysis was performed at 5 weeks of treatment. At the end of the study, blood samples were taken through the retroorbital venous sinus of mice, fat depots (brown fat, inguinal subcutaneous fat, epididymal fat, perirenal fat and mesenteric fat depot) were dissected, weighed, and immediately frozen in liquid nitrogen and stored at −80 °C until required. Weight of fat depots are expressed in percentage (fat depots weight /bodyweight * 100%).

db/db mice [2] = test: Body weight of db/db mice during 35-day treatment; assay type: in vivo; conditions: db/db mice; for Average body weight gain: day 35, mean ± SD; for Body weight gain in 5 weeks: individual mice
Procedure: as §1

[3] = BJ 75mg/kg, individual mice 1-10
[4] = BJ 150mg/kg, individual mice 1-10

CC(C)Cc1ccc(C(C)C(=O)[O-])cc1.COc1ccc2cc3[n+](cc2c1OC)CCc1cc2c(cc1-3)OCO2.O.O.O.O [BJ, berberine-ibuprofen]
BAT fat depot weight (Figure 4c) (db/db mice [1]; [3]): 1.4827 and 0.5576 and 2.7679 and 1.5898 and 1.8729 and 1.268 and 0.7299 and 1.4681 and 1.4209 and 1.9195
eWAT fat depot weight (Figure 4c) (db/db mice [1]; [3]): 2.9499 and 3.004 and 3.3073 and 3.0683 and 2.8654 and 1.9039 and 2.9972 and 3.1786 and 2.5863 and 2.885
iWAT fat depot weight (Figure 4c) (db/db mice [1]; [3]): 2.9834 and 2.2193 and 4.5703 and 3.1934 and 4.0303 and 2.1465 and 2.6777 and 3.7948 and 2.2136 and 4.2859
eWAT fat depot weight (Figure 4c) (db/db mice [1]; [4]): 2.6032 and 2.4699 and 2.5757 and 2.9739 and 2.5582 and 2.4535 and 2.305 and 2.1485 and 2.4952 and 2.1171
iWAT fat depot weight (Figure 4c) (db/db mice [1]; [4]): 2.0087 and 2.2014 and 2.1848 and 3.5434 and 3.664 and 1.962 and 0.513 and 2.1562 and 2.8234 and 1.567
Fat depots weight / body weight (db/db mice [1]; 75 mg/kg for 35 days, 75 mg/kg): 17.3087% and 20.1428% and 17.1651% and 21.4638% and 17.3569% and 14.6768% and 23.7077% and 20.828% and 19.5629% and 16.4679%
Fat depots weight / body weight (db/db mice [1]; 150 mg/kg for 35 days, 150 mg/kg): 11.5274% and 15.536% and 18.4944% and 12.6638% and 16.2402% and 14.3781% and 12.8992% and 19.8596% and 21.4381% and 12.5947%
Fat depots weight compared with vehicle (db/db mice [1]; BJ 75 and 150 mg/kg, BBR 150 mg/kg, Ibu 150 mg/kg): lower fat depots weight than vehicle-treated db/db mice
Body weight (db/db mice [2]; 75 mg/kg gavage once per day, day 1, individual mice, 75 mg/kg): 42 grams and 38 grams and 33 grams and 41 grams and 34 grams and 40 grams
Body weight (db/db mice [2]; 75 mg/kg gavage once per day, day 4, individual mice, 75 mg/kg): 44 grams and 40 grams and 36 grams and 41 grams and 39 grams and 42 grams
Body weight (db/db mice [2]; 75 mg/kg gavage once per day, day 7, individual mice, 75 mg/kg): 45 grams and 40 grams and 41 grams and 35 grams and 43 grams and 36 grams
Body weight (db/db mice [2]; 75 mg/kg gavage once per day, day 10, individual mice, 75 mg/kg): 43 grams and 40 grams and 42 grams and 35 grams and 44 grams and 36 grams
Body weight (db/db mice [2]; 75 mg/kg gavage once per day, day 13, individual mice, 75 mg/kg): 45 grams and 42 grams and 43 grams and 35 grams and 37 grams and 41 grams and 44 grams
Body weight (db/db mice [2]; 75 mg/kg gavage once per day, day 16, individual mice, 75 mg/kg): 44 grams and 42 grams and 37 grams and 46 grams and 39 grams
Body weight (db/db mice [2]; 75 mg/kg gavage once per day, day 19, individual mice, 75 mg/kg): 47 grams and 42 grams and 46 grams and 38 grams and 48 grams and 37 grams and 44 grams and 45 grams and 41 grams
Body weight (db/db mice [2]; 75 mg/kg gavage once per day, day 22, individual mice, 75 mg/kg): 49 grams and 44 grams and 48 grams and 39 grams and 38 grams and 46 grams and 47 grams and 42 grams
Body weight (db/db mice [2]; 75 mg/kg gavage once per day, day 25, individual mice, 75 mg/kg): 50 grams and 45 grams and 49 grams and 40 grams and 48 grams and 38 grams and 46 grams and 42 grams
Body weight (db/db mice [2]; 75 mg/kg gavage once per day, day 28, individual mice, 75 mg/kg): 50 grams and 46 grams and 40 grams and 49 grams and 45 grams and 47 grams and 41 grams
Body weight (db/db mice [2]; 75 mg/kg gavage once per day, day 31, individual mice, 75 mg/kg): 53 grams and 47 grams and 52 grams and 40 grams and 50 grams and 41 grams and 43 grams
Body weight (db/db mice [2]; 75 mg/kg gavage once per day, day 34, individual mice, 75 mg/kg): 52 grams and 47 grams and 44 grams and 51 grams and 43 grams and 50 grams and 45 grams and 48 grams
Average body weight gain (db/db mice [2]; 75 mg/kg gavage once per day): 9.4 ± 2.7 g
Body weight gain in 5 weeks (db/db mice [2]; 75 mg/kg gavage once per day, 75 mg/kg): 7 grams and 10 grams and 9 grams and 14 grams and 11 grams
Body weight (db/db mice [2]; 150 mg/kg gavage once per day, day 1, individual mice, 150 mg/kg): 38 grams and 44 grams
Body weight (db/db mice [2]; 150 mg/kg gavage once per day, day 4, individual mice, 150 mg/kg): 39 grams
Body weight (db/db mice [2]; 150 mg/kg gavage once per day, day 7, individual mice, 150 mg/kg): 39 grams
Body weight (db/db mice [2]; 150 mg/kg gavage once per day, day 10, individual mice, 150 mg/kg): 38 grams
Body weight (db/db mice [2]; 150 mg/kg gavage once per day, day 13, individual mice, 150 mg/kg): 40 grams
Body weight (db/db mice [2]; 150 mg/kg gavage once per day, day 16, individual mice, 150 mg/kg): 39 grams
Body weight (db/db mice [2]; 150 mg/kg gavage once per day, day 19, individual mice, 150 mg/kg): 39 grams
Body weight (db/db mice [2]; 150 mg/kg gavage once per day, day 22, individual mice, 150 mg/kg): 37 grams
Body weight (db/db mice [2]; 150 mg/kg gavage once per day, day 25, individual mice, 150 mg/kg): 37 grams and 44 grams
Body weight (db/db mice [2]; 150 mg/kg gavage once per day, day 28, individual mice, 150 mg/kg): 38 grams and 43 grams
Body weight (db/db mice [2]; 150 mg/kg gavage once per day, day 31, individual mice, 150 mg/kg): 40 grams and 46 grams
Body weight (db/db mice [2]; 150 mg/kg gavage once per day, day 34, individual mice, 150 mg/kg): 43 grams and 48 grams
Average body weight gain (db/db mice [2]; 150 mg/kg gavage once per day): 5.2 ± 0.9 g
Body weight gain in 5 weeks (db/db mice [2]; 150 mg/kg gavage once per day, 150 mg/kg): 6 grams and 5 grams and 4 grams
